Experimental data taken from PubChem BioAssay (NCI).
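At the GI50, growth is halved. At the TGI there is no net growth.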

Assays:
Test in all cases: NCI tumour cell line growth inhibition, 384-well format
786-0 renal = tested on: 786-0 renal
A549 NSCLC = tested on: A549 NSCLC
CAKI-1 renal = tested on: CAKI-1 renal
EKVX NSCLC = tested on: EKVX NSCLC
HCT-15 colon = tested on: HCT-15 colon
HOP-92 NSCLC = tested on: HOP-92 NSCLC
MDA-MB-468 breast = tested on: MDA-MB-468 breast
OVCAR-3 ovarian = tested on: OVCAR-3 ovarian
SF-295 CNS = tested on: SF-295 CNS
SK-MEL-2 melanoma = tested on: SK-MEL-2 melanoma
SK-OV-3 ovarian = tested on: SK-OV-3 ovarian
SN12C renal = tested on: SN12C renal
SW-620 colon = tested on: SW-620 colon

CNCc1ccc(-c2[nH]c3cc(F)cc4c3c2CCNC4=O)cc1
GI50 (786-0 renal): 7.97 µM | TGI (786-0 renal): 21.3 µM | GI50 (A549 NSCLC): 14.7 µM | TGI (A549 NSCLC): 29.5 µM | GI50 (CAKI-1 renal): 7.56 µM | TGI (CAKI-1 renal): 19.8 µM | GI50 (EKVX NSCLC): 16.1 µM | TGI (EKVX NSCLC): 30.9 µM | GI50 (HCT-15 colon): 15.1 µM | TGI (HCT-15 colon): 31.1 µM | GI50 (HOP-92 NSCLC): 12.9 µM | TGI (HOP-92 NSCLC): 27.9 µM | GI50 (MDA-MB-468 breast): 4.13 µM | TGI (MDA-MB-468 breast): 11.5 µM | GI50 (OVCAR-3 ovarian): 16 µM | TGI (OVCAR-3 ovarian): 31 µM | GI50 (SF-295 CNS): 8.3 µM | TGI (SF-295 CNS): 22.4 µM | GI50 (SK-MEL-2 melanoma): 11.9 µM | TGI (SK-MEL-2 melanoma): 24.3 µM | GI50 (SK-OV-3 ovarian): 20.6 µM | TGI (SK-OV-3 ovarian): 45.3 µM | GI50 (SN12C renal): 14.9 µM | TGI (SN12C renal): 31 µM | GI50 (SW-620 colon): 7.46 µM | TGI (SW-620 colon): 23.6 µM

N#CCC1(n2cc(-c3ncnc4[nH]ccc34)cn2)CN(C2CCN(C(=O)c3ccnc(C(F)(F)F)c3F)CC2)C1
GI50 (786-0 renal): > 96.4 µM | TGI (786-0 renal): > 100 µM | GI50 (A549 NSCLC): > 61.3 µM | TGI (A549 NSCLC): > 100 µM | GI50 (CAKI-1 renal): > 84.9 µM | TGI (CAKI-1 renal): > 100 µM | GI50 (EKVX NSCLC): > 70 µM | TGI (EKVX NSCLC): > 100 µM | GI50 (HCT-15 colon): > 78.9 µM | TGI (HCT-15 colon): > 100 µM | GI50 (HOP-92 NSCLC): 40.1 µM | TGI (HOP-92 NSCLC): > 100 µM | GI50 (MDA-MB-468 breast): 17.6 µM | TGI (MDA-MB-468 breast): 50.5 µM | GI50 (OVCAR-3 ovarian): > 71.5 µM | TGI (OVCAR-3 ovarian): > 100 µM | GI50 (SF-295 CNS): 72.9 µM | TGI (SF-295 CNS): > 100 µM | GI50 (SK-MEL-2 melanoma): > 100 µM | TGI (SK-MEL-2 melanoma): > 100 µM | GI50 (SK-OV-3 ovarian): > 73.7 µM | TGI (SK-OV-3 ovarian): > 100 µM | GI50 (SN12C renal): 83.1 µM | TGI (SN12C renal): > 100 µM | GI50 (SW-620 colon): > 61.1 µM | TGI (SW-620 colon): > 100 µM
